In patent publication US8748121B2, “GSH adducts and uses thereof” (The Trustees of the University of Pennsylvania, priority 2006, dated 2014):
Like-named read-outs stand apart in the source and are kept apart here.

Assays:
[1] = test system: glutathione-S-transferase (GST); conditions: GSH 1 mM, ONE 1 mM
Experimental: GSH (1 or 4 mM) was incubated with 4-ONE (1 mM or 100 μM) in 100 mM potassium phosphate buffer (200 μL) containing 1 mM EDTA (pH 6.5). Reactions were also conducted in the presence of equine or rat GST (10 or 100 units). Similar reactions were performed with 4 mM GSH and 2-[2 Hi]-ONE, 3-[2H]-ONE, or 2,3-[^2H2]-ONE (1 mM). Reaction mixtures were incubated at 37° C. for 1 h and then filtered through an Amicon Ultra-4 5,000 filter, and a 20 μL aliquot was analyzed by LC-MS using gradient system 1.
TOG and ONE were monitored by UV (224 nm) from the reaction between GSH (1 mM) and ONE (1 mM) in the presence of GST (10 or 100 units) for 24 h.

[2] = test system: EA.hy 926 endothelial cells; test: Analysis of GSH adducts (TOG) in ONE-treated endothelial cells by stable isotope dilution LC-MRM/MS; assay type: cell-based; conditions: for detection of the adduct in cells treated with ONE: EA.hy 926 cells
Experimental: EA.hy 926 cells were incubated until they reached 70-80% confluence (approximately 2×10^6 cells). DMEM was removed and replaced with FBS-free DMEM prior to treatment with varying concentrations of ONE dissolved in ethanol. The final concentration of ethanol in the culture medium was <0.1%. […] […] […] The cell lysate flow-through and cell media (40 μL of each) were each analyzed in duplicate by LC-MRM/MS using gradient system 4 on the Finnigan Quantum Ultra AM mass spectrometer. The internal standard [^2H3]-ONE-GSH adduct IIb was prepared from 9-[2H3]-ONE and GSH. Quantification of endogenous ONE-GSH adduct IIb was performed from the peak area ratios for the transition m/z 426 [ONE-GSH adduct IIb, protonated molecule (MH+)]→m/z 280 (MH+—CONHCH2CO2H—CONH2) compared to the transition m/z 429 (MH^+, [^2H3]-ONE-GSH adduct IIb internal standard)→m/z 283 (MH+—CONHCH2CO2H—CONH2). Intracellular and extracellular ONE-GSH adduct IIb concentrations were determined by interpolation from a standard curve prepared by adding a fixed amount of [^2H3]-ONE-GSH adduct IIb (10 ng) to increasing amounts of authentic ONE-GSH adduct IIb in the blank lysis buffer or incubation medium (range 0.2 ng/mL to 50 ng/mL). A typical regression line for a standard curve of area ratios compared with ONE-GSH adduct IIb concentrations [ng/mL] in the blank lysis buffer was y) 0.065x +0.0045 (r^2=0.9999).

[3] = test system: EA.hy 926 endothelial cells; test: Analysis of GSH adducts in endothelial cells subjected to oxidative stress (t-BuOOH/FeII); assay type: cell-based; conditions: 10 μM t-BuOOH/500 μM FeII
Experimental: EA.hy 926 cells were incubated until they reached 70-80% confluence (approximately 2×10^6 cells). DMEM was removed and replaced with FBS-free DMEM prior to treatment with t-BuOOH (10 μM) and Fe^II (500 μM, ferrous sulfate). Cells were collected after 30 min, and intracellular GSH adduct concentrations were quantified by stable isotope dilution LC-MRM/MS as described above. Channels corresponding to the specific MRM transitions of the ONE-GSH adduct IIb and its trideuterated internal standard were monitored as described above. MRM transitions for HNE- and ONO-GSH adducts m/z 464 (MH^+)→m/z 308 (MH^+—C9H16O2) were also monitored. Quantification of diastereomeric HNE-GSH adducts was conducted by determining the ratio of the area of the HNE-GSH adducts signal to the area of [^2H3]-ONE-GSH adduct IIb. Intracellular concentrations of HNE-GSH adducts were determined with reference to a standard curve constructed in lysis buffer using authentic standards of unlabeled HNE-GSH adducts as described above for the ONE-GSH adduct IIb.

[4] = incubated with 1% TFA, 37° C., 24 h
Experimental: A portion of ONE-GSH adduct IIb was then incubated with 1% TFA at 37° C. for 24 h. The reaction mixture (20 μL) was analyzed by LC-MS using gradient system 1.

**Q.** With `CCCCCC(=O)/C=C/C=O` [ONE, 4-oxo-2(E)-nonenal] as the molecule, how does the “reaction rate with 100 units of GST relative to 10 units” value [1] read?
**A.** 6 times

**Q.** What about the “ONE still left in the reaction mixture” value ([1]; 10 units of GST, after 24 h) of the same molecule?
**A.** 6%

**Q.** What about the ONE consumed ([1]; 10 units of GST, by 4 h) of the same molecule?
**A.** 58%

**Q.** And the “consumption of ONE” value ([1]; 100 units of GST, after 4 h)?
**A.** 93%

**Q.** What about the ONE remaining ([1]; 100 units of GST, after 24 h) of the same molecule?
**A.** not detectable

**Q.** What about the ONE consumed ([1]; 100 units of GST, by 40 min) of the same molecule?
**A.** 52%

**Q.** What about the “ONE concentration at which the cells were no longer viable” value ([2]; EA.hy 926 endothelial cells) of the same molecule?
**A.** > 20 /<M

**Q.** And the “ONE concentration at which TOG was detected in the extracellular milieu” value ([2]; LC-MRM/MS)?
**A.** ≥ 1 µM

**Q.** And the “ONE concentration at which intracellular TOG could be quantified” value ([2]; LC-MRM/MS)?
**A.** ≥ 5 /iM

**Q.** What does the source list for `CCCCCc1c2ccn1C(C(=O)O)CCC(=O)NC(C(=O)NCC(=O)O)CSc1ccn(c1CCCCC)C(C(=O)O)CCC(=O)NC(C(=O)NCC(=O)O)CS2` (stereo not drawn) [adduct III, 7,19-bis-(carboxymethyl-carbamoyl)-5,17-dioxo-25,26-dipentyl-9,21-dithia-1,6,13,18-tetraaza-tricyclo[20.2.1.110.13]hexacosa-10(26),11,22(25),23-tetraene-2,14-dicarboxylic acid]?
**A.** detection of the adduct in cells treated with ONE [2]: unable to detect; detection of the adduct in cells subjected to oxidative stress [3]: unable to detect

**Q.** For `CCCCCc1c(SCC(NC(=O)CCC(N)C(=O)O)C(=O)NCC(=O)O)ccn1C(CCC(=O)NC(CS)C(=O)NCC(=O)O)C(=O)O` (stereo not drawn) [adduct Ia, 2-amino-4-[2-(1-{1-carboxy-3-[1-(carboxymethyl-carbamoyl)-2-mercapto-ethylcarbamoyl]-propyl}-2-pentyl-1H-pyrrol-3-ylsulfanyl)-1-(carboxymethyl-carbamoyl)-ethylcarbamoyl]-butyric acid], which “detection of the adduct in cells treated with ONE” value [2] is on record?
**A.** unable to detect

**Q.** And the “detection of the adduct in cells subjected to oxidative stress” value [3]?
**A.** unable to detect

**Q.** Which “incubation time to maximal formation of TOG” value ([1]; 10 units of GST) does the source give for “(2S,7R)-7-[iV-(carboxymethyl)carbamoyl]-5-oxo-12-pentyl-9-thia-1,6-diazabicyclo[8.2.1]trideca-10(13),11-diene-2-carboxylic acid [TOG]” here?
**A.** 24 h

**Q.** And the “incubation time to maximal formation of TOG” value ([1]; 100 units of GST)?
**A.** 4 h

**Q.** What about the “TOG as share of the intracellular total GSH at the start of the incubation (10 nmol)” value ([2]; 20 fiM ONE for 30 min) of the same molecule?
**A.** 15.4%

**Q.** And the “total TOG” value ([2]; 20 fiM ONE for 30 min)?
**A.** 1.54 nmol

**Q.** What about the “intracellular concentration of TOG” value ([2]; after the addition of 20 μM ONE (printed 20 μL; 20/<M)) of the same molecule?
**A.** 46.1 µM

**Q.** And the intracellular TOG, maximum of dose-dependent increase ([2]; after the addition of ONE)?
**A.** 46.1 pmol/2×10^6 cells

**Q.** What about the “concentration of intracellular TOG” value ([2]; cells incubated with 5 fiU ONE for 0.5 h) of the same molecule?
**A.** 2.8 µM

**Q.** And the “conversion to dehydrated product (adduct IV)” value [4]?
**A.** quantitative conversion
